Assays:
[1] = Pharmacokinetics in CD-1 mice after single oral and intravenous administration; format: in vivo, mouse; conditions: for Clearance (Cl) / Cmax / F (oral bioavailability) / Half-life: CD-1 mice, TBX-1 1 mpk iv and 5 mpk po, TBX-2 1 mpk iv and 3 mpk po; for plasma half-life: mice, intravenous and oral administration
Method: The pharmacokinetics of the compounds were evaluated in CD-1 mice by single oral and intravenous routes of drug administration. The mice were fasted overnight before oral-gavage dosing of the compounds. The solutions used for PK studies were prepared by dissolving the compounds in 5% Solutol HS 15 in water. Following oral or intravenous administration of compounds, blood samples were collected at 0.08, 0.25, 0.5, 1, 2, 4, 6, 8, 12, and 24 h after dosing. Blood samples were centrifuged to separate plasma, and compound concentrations were determined by LC-MS. Dosing was well tolerated following oral and intravenous administration of both compounds, and no abnormal behavior was observed.

[2] = molecular target: hMK2 (Homo sapiens, UniProt P49137); assay: hMK2 inhibition; format: biochemical
Sequence of hMK2 (P49137 whole entry): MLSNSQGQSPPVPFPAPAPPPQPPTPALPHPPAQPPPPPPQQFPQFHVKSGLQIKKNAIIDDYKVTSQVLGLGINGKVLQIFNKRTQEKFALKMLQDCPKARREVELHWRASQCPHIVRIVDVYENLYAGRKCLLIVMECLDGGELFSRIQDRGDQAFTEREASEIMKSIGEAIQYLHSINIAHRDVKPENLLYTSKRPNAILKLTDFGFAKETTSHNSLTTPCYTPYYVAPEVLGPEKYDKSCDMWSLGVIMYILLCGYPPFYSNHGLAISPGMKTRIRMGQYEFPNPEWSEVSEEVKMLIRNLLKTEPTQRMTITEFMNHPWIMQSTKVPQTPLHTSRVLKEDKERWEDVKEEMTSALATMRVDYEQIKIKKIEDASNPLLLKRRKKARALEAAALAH

[3] = tested on: aortic root lesions of WD-fed Ldlr-/- mice; assay: Aortic root atherosclerotic lesion analysis and in situ efferocytosis in WD-fed Ldlr-/- mice; format: in vivo, mouse; conditions: for total necrotic area: aortic root; for collagen content of the lesions / fibrous-cap thickness: picrosirius red; for collagen content of the lesions: percent of total lesion area; for fibrous-cap thickness: ratio of cap thickness to lesion size
Method: (§1) Eight-week-old male Ldlr^-/- mice on the C57BL/6J background were purchased from Jackson Laboratory (stock # 002207) and fed a Western-type Diet (WD) for 16 weeks (Envigo, TD.88137; 21.2% fat, 0.2% cholesterol, 48.5% carbohydrate, and 17.3% protein by weight). Between weeks 10–16 of feeding, the WD of the experimental group was supplemented with TBX-1 or TBX-2 (600 mg/kg diet) to achieve a dose of ∼30 mg/kg body weight per day, whereas control mice remained on regular WD. The study included four separate cohorts, each comprised of 5 to 10 mice per group. The mice were randomly assigned to the different cohorts. Fasting blood glucose was measured in mice that were fasted for 5 h, with free access to water, using a glucose meter. Insulin tolerance test was performed in 5 h-fasted mice by assaying blood glucose at various times after injection of insulin (0.7 IU/kg body wt i.p.). Plasma insulin levels were measured in mice that were fasted for 5 h using an ultra-sensitive mouse insulin ELISA kit (Crystal Chem). At the time of harvest, mice were euthanized using isoflurane, and blood was then removed by left ventricular puncture. Animals were provided with food and water ad libitum and housed in standard cages at 22°C in a 12-12h light-dark cycle in a barrier facility. The Columbia University IACUC provided ethical approval for these studies, and procedures were conducted in accordance with approved animal protocols.
Total lesion area and necrotic area analysis were carried out on hematoxylin and eosin (H&E)-stained aortic root lesional cross sections as previously described. Briefly, total lesion area (from internal elastic lamina to the lumen) and acellular/anuclear areas (negative for hematoxylin-positive nuclei) per cross section were quantified by taking the average of 6 sections spaced 30 μm apart beginning at the base of the aortic root. Necrotic areas were defined as anuclear areas based on absence of hematoxylin staining. Collagen staining was performed using picrosirius red as per the manufacturer’s instructions (Polysciences Inc.), and fibrous cap thickness was quantified from 3 distinct regions of the plaque and scored per lesion size as previously described. For immunofluorescence staining, frozen sections were fixed in cold acetone for 10 minutes. After blocking for 1 hour in serum-free protein blocking buffer (DAKO, catalog X0909), sections were incubated overnight at 4°C with anti–phospho-hsp25 (CST, 1:200), anti-Mac2 (1:10,000), and smooth-muscle α actin (SMαA, 1:150) antibodies, rinsed with PBS three times, incubated with fluorescently-labeled secondary antibodies for 2 hours, and counterstained with DAPI. Three slides, each with 2 sections, were assessed for each mouse.
Experimentation was carried out as previously described. In brief, acetone-fixed aortic root sections were incubated with TUNEL (Roche) followed by staining with anti-Mac2 (1:10,000) to label macrophages. Apoptotic cells were then determined to be either macrophage-associated (colocalizing or juxtaposed with macrophages) or free (not associated with macrophages). Data were plotted as a ratio of associated-to free cells, which is a measure of efferocytosis.

[4] = tested on: MK2 activity (phospho-hsp25); assay: Phospho-hsp25 (MK2 substrate) in liver and aortic root lesions of WD-fed Ldlr-/- mice; format: in vivo, mouse; conditions: ~30 mg/kg body weight per day in WD for 6 weeks
Method: Eight-week-old male Ldlr^-/- mice on the C57BL/6J background were purchased from Jackson Laboratory (stock # 002207) and fed a Western-type Diet (WD) for 16 weeks (Envigo, TD.88137; 21.2% fat, 0.2% cholesterol, 48.5% carbohydrate, and 17.3% protein by weight). Between weeks 10–16 of feeding, the WD of the experimental group was supplemented with TBX-1 or TBX-2 (600 mg/kg diet) to achieve a dose of ∼30 mg/kg body weight per day, whereas control mice remained on regular WD. The study included four separate cohorts, each comprised of 5 to 10 mice per group. The mice were randomly assigned to the different cohorts. Fasting blood glucose was measured in mice that were fasted for 5 h, with free access to water, using a glucose meter. […] Plasma insulin levels were measured in mice that were fasted for 5 h using an ultra-sensitive mouse insulin ELISA kit (Crystal Chem). […]
Total lesion area and necrotic area analysis were carried out on hematoxylin and eosin (H&E)-stained aortic root lesional cross sections as previously described. Briefly, total lesion area (from internal elastic lamina to the lumen) and acellular/anuclear areas (negative for hematoxylin-positive nuclei) per cross section were quantified by taking the average of 6 sections spaced 30 μm apart beginning at the base of the aortic root. […] Three slides, each with 2 sections, were assessed for each mouse. […]

[5] = tested on: forskolin-induced G6pc mRNA; assay: Forskolin-induced G6pc mRNA in primary mouse hepatocytes (RT-qPCR); format: cell-based; conditions: TBX-1 1 h, then TBX-1 and forskolin 4 h in serum-free media
Method: Primary mouse hepatocytes were isolated from 8- to 12-week-old mice as described previously and cultured in media containing Dulbecco’s Modified Eagle’s Medium (DMEM) (Corning, #10-013-CV), 10% (vol/vol) heat-inactivated FBS, and 1X penicillin-streptomycin. After overnight incubation, the cells were washed twice with PBS, treated with the indicated concentrations of TBX-1 for 1 h, followed by treatment with TBX-1 and forskolin for 4 h in FBS-free media.
Immunoblot and quantitative RT-PCR (RT-qPCR) assays were conducted as previously described. […]
Densitometric quantification of the data are shown in the bar graphs (n = 5-6 mice/group; mean ± SEM, p = 0.003, p = 0.001 and p = 0.02, respectively).
S2 Fig. Blood leukocyte and monocyte counts are similar between control and MK2 inhibitor–treated mice. […] Whole blood was analyzed for the number of total white blood cells (A) and monocytes (B) from a randomly selected subset of TBX-1–treated Ldlr-/- mice (n = 19 mice/group; mean ± SEM). […]
S3 Fig. Lesional collagen content is increased, whereas macrophage and smooth muscle cell numbers are similar between control and MK2 inhibitor–treated mice. […] Picrosirius red staining was quantified, and collagen content is expressed as percent of total lesion area (n = 7-10 mice/group; mean ± SEM, p = 0.009 and p = 0.03, respectively). […]

[6] = tested on: WD-fed Ldlr-/- mice; assay: Metabolism, plasma lipids, blood cells and tolerability in WD-fed Ldlr-/- mice with established atherosclerosis; format: in vivo, mouse; conditions: ~30 mg/kg body weight per day in WD for 6 weeks; for blood leukocyte (total white blood cell) count / blood monocyte count: versus control
Method: as §1
Total plasma cholesterol and triglyceride levels were measured using commercially available kits (Wako Diagnostics). Plasma lipoproteins were analyzed by running 200 μl of pooled plasma onto a fast protein liquid chromatography system consisting of 2 Superose 6 columns connected in series (Amersham Pharmacia Biotech) as described previously.

Row | SMILES | Clearance (Cl) [1] [mL/min/kg] | Cmax [1] [nM] | F (oral bioavailability) [1] [%] | Half-life [1] [h] | plasma half-life [1] [h] | IC50 [2] [nM] | total necrotic area [3] | collagen content of the lesions [3] | fibrous-cap thickness [3] | phospho-hsp25 levels in atherosclerotic lesions ([4]; aortic root sections, MFI within Mac2+ area) | phosphorylation of hsp25 in liver ([4]; liver extracts, immunoblot) | forskolin-induced G6pc mRNA [5] | blood leukocyte (total white blood cell) count [6] | blood monocyte count [6] | LDL-cholesterol (fast protein liquid chromatography of plasma) [6] | VLDL-cholesterol (fast protein liquid chromatography of plasma) [6]
1 | CN(C)[C@@H]1CCN(c2ccc3c(c2)Cn2cc(-c4ccc(C#N)cc4)cc2-c2nncn2-3)C1 [TBX-1] | 24.8 | 58 | 20.0 | 2.7 | 2.7 | 67 | significantly reduced | significantly increased | significantly increased | significantly reduced | efficiently reduced | inhibited forskolin-induced G6pc mRNA in a dose-dependent manner | similar | similar | reduced | reduced
2 | CN(C)C[C@H]1CC(=O)N(c2ccc3c(c2)Cn2cc(-c4ccc(C#N)cc4)cc2-c2nccn2-3)C1 [TBX-2] | 12.2 | 296 | 89.1 | 3.1 | 3.1 | 19 | significantly reduced | significantly increased | significantly increased |  |  |  | similar | similar | reduced | reduced

— PMC8118275, “Allosteric MAPKAPK2 inhibitors improve plaque stability in advanced atherosclerosis” (PLoS ONE, 2021)
